This is an account of results in ChEMBL document CHEMBL3739407, “Synthesis and SAR of Imidazo[1,5-a]pyridine derivatives as 5-HT4 receptor partial agonists for the treatment of cognitive disorders associated with Alzheimer's disease” (Eur J Med Chem, 2015).

Series [1] is described as follows: Volume of distribution at steady state in Wistar rat at 10 mg/kg, po and 5 mg/kg, iv by LC-MS analysis. Conditions: in vivo, read-out: Vdss. The class given is ADME, organism-based.
The nature of series [2]: Oral bioavailability in Wistar rat at 10 mg/kg. The class given is ADME, organism-based. To be noted: in vivo.
Series [3] is described as follows: Cmax in Wistar rat at 10 mg/kg, po and 5 mg/kg, iv. The class given is ADME, organism-based. To be noted: in vivo.
Series [4] is described as follows: Ratio of drug level in brain to plasma in Wistar rat at 10 mg/kg, po and 5 mg/kg, iv. Type of series: ADME, organism-based. Conditions: read-out: BPR.
Series [5] is described as follows: Oral bioavailability in Wistar rat at 3 mg/kg. Type of series: ADME, organism-based. To be noted: in vivo.
Series [6] can be described thus: Cmax in Wistar rat at 3 mg/kg, po. Type of series: ADME, organism-based. On the set-up: dose 3 mg/kg, route oral. To be noted: in vivo.
The nature of series [7]: Cmax in beagle dog at 1 mg/kg, po. The class given is ADME, organism-based, Canis lupus familiaris. On the set-up: dose 1 mg/kg, route oral. To be noted: in vivo.
Series [8] is described as follows: AUC (0 to t) in beagle dog at 1 mg/kg, po. The class given is ADME, organism-based, Canis lupus familiaris. To be noted: in vivo.
Series [9] in a line: AUC (0 to t) in Wistar rat at 1 mg/kg, iv. Type of series: ADME, organism-based. Conditions: in vivo.
A short description of series [10]: Apparent volume of distribution in Wistar rat at 1 mg/kg, iv. Type of series: ADME, organism-based. Conditions: in vivo, read-out: Vd(app).
The nature of series [11]: Tmax in beagle dog at 1 mg/kg, po. Type of series: ADME, organism-based, Canis lupus familiaris. To be noted: in vivo.
Series [12] in a line: Apparent permeability of the compound in human Caco2 cells. The class given is ADME, cell-based. Conditions: Caco-2. (Caco-2 monolayers are a common model of the intestinal barrier.)
The nature of series [13]: AUC (0 to t) in beagle dog at 1 mg/kg, iv administered as 5 mins infusion. Type of series: ADME, organism-based, Canis lupus familiaris. To be noted: in vivo.
Series [14] can be described thus: AUC (0 to t) in Wistar rat at 3 mg/kg, po. Type of series: ADME, organism-based. To be noted: in vivo.
Series [15] can be described thus: Oral bioavailability in beagle dog at 1 mg/kg. The class given is ADME, organism-based, Canis lupus familiaris. To be noted: in vivo.
The nature of series [16]: Tmax in Wistar rat at 3 mg/kg, po. The class given is ADME, organism-based. To be noted: in vivo.
A short description of series [17]: Apparent volume of distribution in beagle dog at 1 mg/kg, iv administered as 5 mins infusion. The class given is ADME, organism-based, Canis lupus familiaris. To be noted: in vivo, read-out: Vd(app).

For the compound `CC(C)c1nc(C(=O)NC2CCN(CC3CC3)CC2)c2ccccn12`, in series [1], the Vd was 5.3 L/kg. Further, in series [2], the bioavailability (as a rule, dose-corrected exposure relative to a reference, in per cent) was 3.7%. In addition, the peak level in series [3] (Cmax) was 74 ng/mL.
For the compound `CC(C)c1nc(C(=O)NC2CCN(C(C)C)CC2)c2ccccn12`, the Vd in [1] worked out at 4.7 L/kg. The bioavailability in [2] came out at 10%. Also, in [3], the Cmax (as a rule, the highest concentration seen after dosing) stood at 166 ng/mL.
As for `CC(C)c1nc(C(=O)NC[C@@H]2[C@H]3CN(CC4CCOCC4)C[C@@H]23)c2ccccn12`, the Vd in [1] was determined as 10.4 L/kg. This compound yielded a bioavailability in series [2] of 17%. In [3], the highest level (Cmax) was 120 ng/mL. In addition, the Kp in [4] was 0.6.
Turning to `COCCCN1C[C@@H]2[C@@H](CNC(=O)c3nc(C(C)C)n4ccccc34)[C@@H]2C1`, the bioavailability in series [5] turned out to be 26%; in series [2], 26%; in [15] it was 94%. For the same compound, the results for the Vd in series [1], in series [10] and in series [17] were 3.7 L/kg, 3.7 L/kg and 2.1 L/kg, respectively. In addition, the Cmax worked out at 188 ng/mL in [6], 412 ng/mL in series [7] and 188 ng/mL in series [3]. Further, the values for the AUC(0-t) in series [8], in series [9] and in [14] were 1220 ng·h/mL, 389 ng·h/mL and 301 ng·h/mL, respectively. For the same compound, the values for the Tmax in [11] and in series [16] were 30 min and 15 min, respectively. In series [12], the Papp – broadly, a coefficient for how fast a substance crosses the barrier – is 34.8 ×10⁻⁶ cm/s. In addition, in series [13], the AUC(0-t) (as a rule, the area under the concentration-time curve up to a stated or last time point) at 5 min was 1310 ng·h/mL. Further, the Kp in series [4] came to 0.31.
Consider `COC(=O)N1CCC(CN2C[C@@H]3[C@@H](CNC(=O)c4nc(C(C)C)n5ccccc45)[C@@H]3C2)CC1`, for which the Vd in series [1] turned out to be 3.3 L/kg. Moreover, in [2], the bioavailability is 12%. Moreover, in series [3], the Cmax came out at 150 ng/mL. For the same compound, in [4], the Kp was found to be 0.69.
For the compound `CC(C)c1nc(C(=O)NC2CCN(CC3(O)CCOCC3)CC2)c2ccccn12`, the Vd in [1] stood at 4.7 L/kg. The compound also showed a bioavailability in [2] of 63%. Moreover, in [3], the Cmax was determined as 434 ng/mL. For the same compound, in series [4], the Kp was 0.38.
Take `CC(C)c1nc(C(=O)NC[C@@H]2[C@H]3CN(C(C)C)C[C@@H]23)c2ccccn12`: in series [1], the Vd was 7.6 L/kg. In [2], the bioavailability came out at 5%. This compound also showed a maximum concentration (Cmax) in series [3] of 80 ng/mL. Moreover, the Kp in series [4] worked out at 0.14.
For `CC(C)c1nc(C(=O)NC2CCN(CCF)CC2)c2ccccn12` the same measures were 2.9 L/kg, 11%, 99 ng/mL and 1.46.
For `CC(C)c1nc(C(=O)NC2CCN(C3CCOCC3)CC2)c2ccccn12` the same measures were 4.6 L/kg, 98%, 1760 ng/mL and 0.31.
For `CC(C)c1nc(C(=O)NC[C@@H]2[C@H]3CN(CC(C)(C)O)C[C@@H]23)c2ccccn12` the same measures were 3.8 L/kg, 34%, 277 ng/mL and 0.31.
On to `CC(C)c1nc(C(=O)NC[C@@H]2[C@H]3CN(CC(C)(C)F)C[C@@H]23)c2ccccn12`, for which the Vd in [1] was found to be 4.9 L/kg. The bioavailability in series [2] was found to be 1.5%. The same compound displayed a Cmax in series [3] of 8.1 ng/mL. For the same compound, the Kp in [4] came out at 0.38.
In the case of `CC(C)c1nc(C(=O)NCC2CCN(CC3CCOCC3)CC2)c2ccccn12`, the Vd in [1] was determined as 4 L/kg. This compound also gave a bioavailability in [2] of 45%. Further, the Cmax in series [3] turned out to be 232 ng/mL. In addition, the Kp in [4] came out at 0.31.
For `COCCCN1CCC(NC(=O)c2nc(C(C)C)n3ccccc23)CC1` the same measures were 4.9 L/kg, 44%, 848 ng/mL and 0.31.
Take `COCCCN1CCC(CNC(=O)c2nc(C(C)C)n3ccccc23)CC1`: the Vd in series [1] worked out at 5.2 L/kg. In addition, the bioavailability in series [2] turned out to be 30%. The compound also came in with a Cmax in series [3] of 109 ng/mL. Besides, the Kp in series [4] worked out at 0.22.
